Reference: US20210017607A1, “Methods of Predicting Responsiveness to Cancer Therapies” (The University of Chicago, priority 2019, published 2021)

What was measured:
Assay type in all cases: cell-based, mouse
Myc-CAP-PTEN^−/− cells = assay: Myc-CAP-PTEN−/− cells in vitro (western blotting, cytokine array); conditions: 24 hours
Method: FIGS. 35A-35D. […] (35A) Myc-CAP-PTEN^−/− cells were treated with copanlisib […] (IC90 concentration) in vitro for 24 hours, and protein extracts were harvested for western blotting analysis with the indicated antibodies to analyze PI3K activation. (35B) Supernatants from (35A) were harvested for cytokine array profiling. n=3 independent in vitro experiments. (35C) Mice bearing Myc-CAP-PTEN^−/− established syngeneic tumors (200 mm^3) were treated with copanlisib (14 mg/kg, every other day, until tumors reached 2000 mm^3). Tumor volumes were monitored daily and graphed. (35D) At the end of treatment, tumors were analyzed by flow cytometry for tumor infiltrating immune cell subsets. n=5 mice per group.
FIGS. 49A and 49B. PTEN-deficient cancer cells have diminished STING expression that can be restored by […] and pan-PI3K inhibitors. (49A) Isogenic MC38, Myc-CAP, ID8, and TRAMP cells (−/+ PTEN) were analyzed for STING mRNA and protein expression by qRT-PCR and western blotting, respectively. (49B) Myc-CAP-PTEN^−/− cells were treated with GSK′771 (PI3Kβ-selective inhibitor, 1 μM) or BKM120 (pan-PI3K inhibitor, 1 μM) for 24 hours, and proteins were analyzed for STING expression and PI3K activation by western blotting.
Cancer Cell Lines and in vitro drug treatments. Transgenic c-myc^hi prostate tumor derived cell line, Myc-CAP and TRAMPC1, ovarian cancer cell line ID8 and murine colon adenocarcinoma line MC38 were obtained from the American Type Culture Collection (ATCC) and passaged in either 1×RPMI/1×DMEM (with phenol) or 1×DMEM (without phenol red) containing 10% fetal bovine serum, 1% penicillin-streptomycin, 2% L-glutamine and 1×ITS. ID8^pten−/−p53−/−cells were a kind gift from Dr. Ian McNeish (Imperial College, London). For generation of STING over expressing cell lines −Myc-CAP^pten+/+ and ID8^pten−/− cells were transfected with commercial available plasmid (DC-Mm22462-SH02, Genecoepia™), sorted and expanded as per protocol. […]

PI3K = assay: In vitro target inhibition by western blotting (PI3K/AKT)
[1] = system: bone marrow derived macrophages (BMDMs); assay: IFNβ1 ELISA of supernatants after DMXAA treatment; conditions: 36 hours
Method: FIGS. 15A-15E. Differential STING pathway activation within B6-Myc (STING^hi) cell lines and BMDMs relative to Myc-CAP (STING^lo) cells. (15A, 15B) The indicated cancer cell lines and BMDMs were treated with DMXAA (mouse STING agonist) for 1 and 24 hours, respectively, and protein extracts were interrogated for cGAS/STING pathway activation with the indicated antibodies by Western blotting. Supernatants were collected from for IFNβ1 ELISA following 36 hours of treatment with DMXAA (15C, 15D). (15E) Syngeneic Myc-CAP (STING^lo) tumors were processed into single cell suspensions and used for phycoerythrin-based sorting of CD45+ cellular fractions. Equal numbers of cells from these fractions were stimulated with DMXAA. Supernatants were collected at 36 hrs for detection of IFNB1 by ELISA; n=3 independent experiments; Significance/p-values were calculated by one-way Anova (for 15C & 15E) or paired t-test (for 15D); TAM=tumor associated macrophage; s.e.=short exposure; l.e.=long exposure.
Generation of BMDMs. Bone marrow derived macrophages were differentiated as previously described. […]

COc1c(OCCCN2CCOCC2)ccc2c1N=C(NC(=O)c1cnc(N)nc1)N1CCN=C21 [copanlisib]
CXCL1 production (Myc-CAP-PTEN^−/− cells; copanlisib 100 nm, cytokine array): decreasing CXCL1 production

Nc1cc(C(F)(F)F)c(-c2cc(N3CCOCC3)nc(N3CCOCC3)n2)cn1 [buparlisib]
STING expression (western blotting) (Myc-CAP-PTEN^−/− cells; 1 μM): restored
concentration that achieved complete target inhibition in vitro (PI3K; B6-Myc cells (FIG. 17B)): 1 µM
target inhibitory concentration (PI3K; BMDMs (FIG. 30A)): 1
activation of the PI3K/AKT pathway within BMDMs (PI3K; BMDMs co-cultured with R-MVs, 24 hours): inhibits activation of the PI3K/AKT pathway
complete target inhibition concentration (PI3K; Myc-CAP cells (FIG. 29B)): 1 µM

Cc1ccc2c(=O)c3cccc(CC(=O)O)c3oc2c1C [DMXAA, 5,6-Dimethylxanthenone-4-acetic Acid]
fold induction in IFN-β levels [1]: 46.4 fold
